Results: patent US20090227616A1, “INHIBITORS OF AKT ACTIVITY” (SMITHKLINE BEECHAM CORPORATION, a corporation, priority 2005, published 2009)
≈ marks a conversion by molar mass, not a printed value.

Tests used:
[1] = Solubility in 50 mM phosphate buffer at pH 7.4; type: physicochemical; details: aqueous buffer
[2] = tested on: HFF (normal human foreskin fibroblast); assay: Methylene Blue Growth Inhibition Assay; type: cell-based; details: 72 h, 3 days
Procedure: (§1) Tumor cell lines used in this assay were BT474 (human breast carcinoma) and LNCaP (lymph node metastasis of prostate cancer). HFF (normal human foreskin fibroblast) was also included. All cell lines were cultured in RPMI 1640 media (Invitrogen Corporation 22400-071) containing 10% Fetal Bovine Serum (FBS) at 37° C. in a humidified 5% CO2 incubator. Cells were harvested using trypsin/EDTA, counted using a hemacytometer and plated in 96-well tissue culture plates (Costar 35-3075), 100 uL per well, at the following densities: BT474 15,000 cells/well, LNCaP 5,000 cells/well and HFF 5,000 cells/well. 10 mM stocks of compounds in DMSO were serially diluted in DMSO through nine 3-fold dilutions in 96-well plates (Costar Corning 3363), and stored at −80C. The next day, compound dilutions were thawed and 4 uL of each transferred to 662 uL RPMI 1640+100 ug/mL gentamicin, resulting in twice the final required test concentrations. 100 uL of compounds diluted in RPMI 1640 were added to all cell lines. The final concentration of DMSO in all wells, including controls, was 0.3%. Cells were incubated at 37C, 5% CO2 for 3 days. Medium was removed by aspiration. Cell biomass was estimated by staining cells with 80 uL methylene blue (Sigma M9140, 0.5% in 50:50 ethanol:water), and incubating at room temperature for 1 hour. Stain was aspirated and the plates rinsed by immersion in water, then air-dried. Stain was released from cells by adding 100 uL of solubilizing solution (1% N-lauroyl sarcosine, sodium salt, Sigma L5125, in PBS) and incubating at room temperature for at least 30 minutes. Plates were shaken and the optical density at 620 nm was measured on a microplate reader. Percent inhibition of cell growth was calculated relative to vehicle-treated control wells. Concentration of compound that inhibits 50% of cell growth (IC50) was interpolated using non-linear regression (Levenberg-Marquadt) and the equation, y=Vmax*(1−(x̂n/K̂n+x̂n)))+Y2. [Ref: Mager, M. E. (1972) Data Analysis in Biochemistry and Biophysics. New York: Academic Press]

[3] = tested on: LNCaP (lymph node metastasis of prostate cancer); assay: Methylene Blue Growth Inhibition Assay; type: cell-based; details: Homo sapiens, 72 h, 3 days
Procedure: as §1

[4] = tested on: BT474 (human breast carcinoma); assay: Methylene Blue Growth Inhibition Assay; type: cell-based; details: BT-474, 72 h, BT474, 3 days
Procedure: as §1

Row | solubility [1] | IC50 [3] | IC50 [4] | Structure (SMILES) | IC50 [2]
1 | 164 µM (≈ 72.4 µg/mL) | 0.081 µM | 0.556 µM | CCn1c(-c2nonc2N)nc2c(C#CC(C)(C)O)ncc(OCC(CN)CC(C)C)c21 (centres unmarked) [Example 12, 4-[7-{[2-(aminomethyl)-4-methylpentyl]oxy}-2-(4-amino-1,2,5-oxadiazol-3-yl)-1-ethyl-1H-imidazo[4,5-c]pyridin-4-yl]-2-methyl-3-butyn-2-ol] | 26.4 µM
2 | – | – | – | CCn1c(-c2nonc2N)nc2c(C#CC(C)(C)O)ncc(OCCCCN)c21 [Compound W, 4-[7-[(4-aminobutyl)oxy]-2-(4-amino-1,2,5-oxadiazol-3-yl)-1-ethyl-1H-imidazo[4,5-c]pyridin-4-yl}-2-methyl-3-butyn-2-ol, reference compound] | 22.1 µM
3 | – | – | – | CCn1c(-c2nonc2N)nc2c(-c3ccccc3)ncc(OCC3CCCNC3)c21 (centres unmarked) [Compound V, 4-{1-ethyl-4-phenyl-7-[(3-piperidinylmethyl)oxy]-1H-imidazo-[4,5-c]pyridin-2-yl}-1,2,5-oxadiazol-3-amine, reference compound] | 0.57 µM
4 | 206 µM (≈ 88.1 µg/mL) | 0.036 µM | 0.171 µM | CCn1c(-c2nonc2N)nc2c(C#CC(C)(C)O)ncc(OCC[C@@H](N)C(C)C)c21 [Example 4, 4-[7-{[(3R)-3-amino-4-methylpentyl]oxy}-2-(4-amino-1,2,5-oxadiazol-3-yl)-1-ethyl-1H-imidazo[4,5-c]pyridin-4-yl]-2-methyl-3-butyn-2-ol] | 8.1 µM
5 | 209 µM (≈ 86.4 µg/mL) | 0.031 µM | 0.137 µM | CCn1c(-c2nonc2N)nc2c(C#CC(C)(C)O)ncc(OCC(C)(C)CN)c21 [Example 7, 4-[7-[(3-amino-2,2-dimethylpropyl)oxy]-2-(4-amino-1,2,5-oxadiazol-3-yl)-1-ethyl-1H-imidazo[4,5-c]pyridin-4-yl]-2-methyl-3-butyn-2-ol] | 26.2 µM
6 | 140 µM (≈ 61.5 µg/mL) | 0.066 µM | 0.249 µM | CCn1c(-c2nonc2N)nc2c(C#CC(C)(C)O)ncc(OCCCNCC3CC3)c21 [Example 10, 4-[2-(4-amino-1,2,5-oxadiazol-3-yl)-7-({3-[(cyclopropylmethyl)amino]propyl}oxy)-1-ethyl-1H-imidazo[4,5-c]pyridin-4-yl]-2-methyl-3-butyn-2-ol] | 17.5 µM
7 | – | – | – | CCn1c(-c2nonc2N)nc2c(C#CC(C)(C)O)ncc(OCCCN)c21 [Compound X, 4-{2-(4-amino-1,2,5-oxadiazol-3-yl)-7-[(3-aminopropyl)oxy]-1-ethyl-1H-imidazo[4,5-c]pyridin-4-yl}-2-methyl-3-butyn-2-ol, reference compound] | 18.1 µM
8 | 179 µM (≈ 76.5 µg/mL) | 0.007 µM | 0.192 µM | CCCC(CCN)Oc1cnc(C#CC(C)(C)O)c2nc(-c3nonc3N)n(CC)c12 (centres unmarked) [Example 16, 4-[7-{[1-(2-aminoethyl)butyl]oxy}-2-(4-amino-1,2,5-oxadiazol-3-yl)-1-ethyl-1H-imidazo[4,5-c]pyridin-4-yl]-2-methyl-3-butyn-2-ol] | 1.08 µM
9 | 27 µM (≈ 11.9 µg/mL) | 0.066 µM | 0.593 µM | CCn1c(-c2nonc2N)nc2c(C#CC(C)(C)O)ncc(OC[C@@H](C)CNC3CC3)c21 [Example 6, 4-(2-(4-amino-1,2,5-oxadiazol-3-yl)-7-{[(2S)-3-(cyclopropylamino)-2-methylpropyl]oxy}-1-ethyl-1H-imidazo[4,5-c]pyridin-4-yl)-2-methyl-3-butyn-2-ol] | 11.5 µM
10 | 203 µM (≈ 86.8 µg/mL) | 0.057 µM | 0.225 µM | CCCC(CN)COc1cnc(C#CC(C)(C)O)c2nc(-c3nonc3N)n(CC)c12 (centres unmarked) [Example 11, 4-[7-{[2-(aminomethyl)pentyl]oxy}-2-(4-amino-1,2,5-oxadiazol-3-yl)-1-ethyl-1H-imidazo[4,5-c]pyridin-4-yl]-2-methyl-3-butyn-2-ol] | 15 µM
11 | 119 µM (≈ 47.5 µg/mL) | 0.071 µM | 0.504 µM | CCn1c(-c2nonc2N)nc2c(C#CC(C)(C)O)ncc(OCC[C@H](C)N)c21 [Example 9, 4-[7-{[(3S)-3-aminobutyl]oxy}-2-(4-amino-1,2,5-oxadiazol-3-yl)-1-ethyl-1H-imidazo[4,5-c]pyridin-4-yl]-2-methyl-3-butyn-2-ol] | 14.5 µM
12 | – | – | – | CCn1c(-c2nonc2N)nc2c(-c3ccccc3)ncc(OCC(O)CN3CCOCC3)c21 (centres unmarked) [Compound S, 1-{[2-(4-amino-1,2,5-oxadiazol-3-yl)-1-ethyl-4-phenyl-1H-imidazo[4,5-c]pyridin-7-yl]oxy}-3-(4-morpholinyl)-2-propanol, reference compound] | > 30 µM
13 | 112 µM (≈ 52.4 µg/mL) | 0.061 µM | 0.051 µM | CCn1c(-c2nonc2N)nc2c(C#CC(C)(C)O)ncc(OC(CCN)C3CCCCC3)c21 (centres unmarked) [Example 18, 4-[7-[(3-amino-1-cyclohexylpropyl)oxy]-2-(4-amino-1,2,5-oxadiazol-3-yl)-1-ethyl-1H-imidazo[4,5-c]pyridin-4-yl]-2-methyl-3-butyn-2-ol] | 3.21 µM
14 | – | – | – | CCn1c(-c2nonc2N)nc2cncc(OC3CCNCC3)c21 [Compound U, 4-[1-ethyl-7-(piperidin-4-yloxy)-1H-imidazo[4,5-c]pyridine-2-yl]-furazan-3-ylamine, reference compound] | 6.47 µM
15 | – | – | – | CCn1c(-c2nonc2N)nc2c(-c3ccccc3)ncc(OCCCN3CCOCC3)c21 [Compound R, 4-(1-ethyl-7-{[3-(4-morpholinyl)propyl]oxy}-4-phenyl-1H-imidazo[4,5-c]pyridin-2-yl)-1,2,5-oxadiazol-3-amine, reference compound] | 19.9 µM
16 | 160 µM (≈ 65.8 µg/mL) | 0.11 µM | 0.093 µM | CCn1c(-c2nonc2N)nc2c(C#CC(C)(C)O)ncc(OCC3(CN)CC3)c21 [Example 15, 4-[7-({[1-(aminomethyl)cyclopropyl]methyl}oxy)-2-(4-amino-1,2,5-oxadiazol-3-yl)-1-ethyl-1H-imidazo[4,5-c]pyridin-4-yl]-2-methyl-3-butyn-2-ol] | > 30 µM
17 | 210 µM (≈ 95.2 µg/mL) | 0.052 µM | 0.295 µM | CCn1c(-c2nonc2N)nc2c(C#CC(C)(C)O)ncc(OCCCNC3CCCC3)c21 [Example 3, 4-(2-(4-amino-1,2,5-oxadiazol-3-yl)-7-{[3-(cyclopentylamino)propyl]oxy}-1-ethyl-1H-imidazo[4,5-c]pyridin-4-yl)-2-methyl-3-butyn-2-ol] | > 30 µM
18 | – | – | – | CCn1c(-c2nonc2N)nc2c(-c3ccccc3)ncc(OCCN3CCOCC3)c21 [Compound T, 4-(1-ethyl-7-([2-(4-morpholinyl)ethyl]oxy)-4-phenyl-1H-imidazo[4,5-c]pyridin-2-yl)-1,2,5-oxadiazol-3-amine, reference compound] | 18.9 µM
19 | – | – | – | CCn1c(-c2nonc2N)nc2c(C#CC(C)(C)O)ncc(OCC3CCNCC3)c21 [Compound Y, 4-{2-(4-amino-1,2,5-oxadiazol-3-yl)-1-ethyl-7-[(4-piperidinylmethyl)oxy]-1H-imidazo[4,5-c]pyridin-4-yl}-2-methyl-3-butyn-2-ol, reference compound] | > 30 µM
20 | 108 µM (≈ 47.7 µg/mL) | 0.032 µM | 0.088 µM | CCCCC(CN)COc1cnc(C#CC(C)(C)O)c2nc(-c3nonc3N)n(CC)c12 (centres unmarked) [Example 13, 4-[7-{[2-(aminomethyl)hexyl]oxy}-2-(4-amino-1,2,5-oxadiazol-3-yl)-1-ethyl-1H-imidazo[4,5-c]pyridin-4-yl]-2-methyl-3-butyn-2-ol] | 6.65 µM
21 | 141 µM (≈ 56.3 µg/mL) | 0.053 µM | 0.202 µM | CCn1c(-c2nonc2N)nc2c(C#CC(C)(C)O)ncc(OC[C@@H](C)CN)c21 [Example 8, 4-[7-{[(2S)-3-amino-2-methylpropyl]oxy}-2-(4-amino-1,2,5-oxadiazol-3-yl)-1-ethyl-1H-imidazo[4,5-c]pyridin-4-yl]-2-methyl-3-butyn-2-ol] | 22.4 µM
22 | 92 µM (≈ 37.1 µg/mL) | 0.012 µM | 0.022 µM | CCn1c(-c2nonc2N)nc2c(C#CC(C)(C)O)ncc(OCC(F)CN)c21 (single isomer, unassigned) [Example 17, 4-[7-[(3-amino-2-(−)-fluoropropyl)oxy]-2-(4-amino-1,2,5-oxadiazol-3-yl)-1-ethyl-1H-imidazo[4,5-c]pyridin-4-yl]-2-methyl-3-butyn-2-ol] | 6.25 µM
23 | – | – | – | CCn1c(-c2nonc2N)nc2c(C#CC(C)(C)O)ncc(OCCCNCCc3ccc(OC)cc3)c21 [Compound Z, 4-(2-(4-amino-1,2,5-oxadiazol-3-yl)-1-ethyl-7-{[3-({2-[4-(methyloxy)phenyl]ethyl}amino)propyl]oxy}-1H-imidazo[4,5-c]pyridin-4-yl)-2-methyl-3-butyn-2-ol, reference compound] | 5.51 µM
